Measured values from patent US12637472B2, “Benzimidazole heteroatom-containing spiro compound and medicinal use thereof” (Changzhi University, priority 2023, dated 2026).
Where two headings read alike, the source gives them in different places.

Columns and labels:
Assay type in all cases: cell-based
[1] = test system: human gastric adenocarcinoma cells AGS; test: MTT in vitro cell proliferation inhibition experiment, AGS; details: MTT method, 48 h contact between compound and cell, read-out: Antiproliferative activity (IC50, μM) AGS
Protocol: (§1) Human liver tumor cells HepG2, human colon cancer cells HCT116, and human gastric adenocarcinoma cells AGS were purchased from the Institute of Basic Medical Sciences, Chinese Academy of Medical Sciences. The cells each were preserved and passaged in the laboratory of the present disclosure according to respective cultivation data. Each cell line was routinely inoculated in a 50 mL cell culture flask, and cultivated with a 10% fetal bovine serum-containing DMEM/IRP-1640 medium at 37° C., 5% CO2, and 100% humidity, where the medium was changed daily. When growing to a confluency of 80% to 90%, cells were digested with a mixture of trypsin and EDTA and passaged according to 1:3.
(§2) An in vitro cell activity and proliferation inhibition experiment was conducted by an MTT method to investigate an impact of a target compound on a survival activity of each cell. Cells at a logarithmic growth phase were inoculated at 5×10^3 cells (100 μL)/well in a 96-well culture plate and cultivated for 24 h, and then compound solutions with different concentrations prepared in advance were added (100 μL) to the plate. At least 3 replicate wells were set for each concentration. A solvent control group without a compound and a blank control group without a cell were set. Edge wells each were filled with 200 μL of sterilized water. […] A liquid in each well was completely removed carefully, 150 μL of DMSO was added to each well, the plate was gently shaken on a microshaker for 10 min to make a purple crystal fully dissolved, and then an absorbance value was determined at 570 nm by a microplate reader. With a cell viability of the solvent control group without a compound as 100%, a cell survival rate was calculated as follows: a cell survival rate=(an absorbance value of a compound group−an absorbance value of the blank control group)/(an absorbance value of the control group−an absorbance value of the blank control group)×100%. A half-maximal inhibitory concentration (IC50) of a compound for a cell was calculated by the Graphpad Prism 5 software.

[2] = test system: human colon cancer cells HCT116; test: MTT in vitro cell proliferation inhibition experiment, HCT116; details: 48 h contact between compound and cell, read-out: Antiproliferative activity (IC50, μM) HCT116
Protocol: as §1, §2

[3] = test system: Human liver tumor cells HepG2; test: MTT in vitro cell proliferation inhibition experiment, HepG2; details: MTT method, 48 h contact between compound and cell, read-out: Antiproliferative activity (IC50, μM) HepG2
Protocol: as §1, §2

[4] = Homo sapiens, HCT-116, MTT method

SMILES	IC50 ([1]; Homo sapiens) [µM]	IC50 [2, 4] [µM]	IC50 ([3]; Homo sapiens) [µM]	IC50 [1] [µM]	IC50 ([2]; MTT method) [µM]	IC50 [3] [µM]
CSCCC1NC2(C(=O)c3ccccc3C2=O)C(C(=O)c2nc3ccccc3[nH]2)C1c1cccc(Br)c1 (stereo not drawn) [Compound 38, 3-(1H-benzimidazol-2-carbonyl)-4-(3-bromophenyl)-5-(2-methylthio)ethylspiro[inden-2,2′-pyrrolidine]-1,3-dione]	40.9	47.4	49.8	–	–	–
Cc1ccc(C2C(CC(C)C)NC3(C(=O)c4ccccc4C3=O)C2C(=O)c2nc3ccccc3[nH]2)cc1 (stereo not drawn) [Compound 12, 3-(1H-benzimidazol-2-carbonyl)-5-isobutyl-4-p-tolylspiro[inden-2,2′-pyrrolidine]-1,3-dione]	42.7	14.1	> 100	–	–	–
O=C(c1nc2ccccc2[nH]1)C1C(c2ccc(Br)cc2)C(c2c[nH]c3ccccc23)NC12C(=O)c1ccccc1C2=O (stereo not drawn) [Compound 48]	44.2	37.8	40.2	–	–	–
CCC(C)C1NC2(C(=O)c3ccccc3C2=O)C(C(=O)c2nc3ccccc3[nH]2)C1c1ccc(Cl)cc1 (stereo not drawn) [Compound 19, 3-(1H-benzimidazol-2-carbonyl)-5-sec-butyl-4-(4-chlorophenyl)spiro[inden-2,2′-pyrrolidine]-1,3-dione]	87.5	42.1	> 100	–	–	–
CC(C)CC1NC2(C(=O)c3ccccc3C2=O)C(C(=O)c2nc3ccccc3[nH]2)C1c1ccc(Br)cc1 (stereo not drawn) [Compound 16, 3-(1H-benzimidazol-2-carbonyl)-4-(4-bromophenyl)-5-isobutylspiro[inden-2,2′-pyrrolidine]-1,3-dione]	20.9	10.8	49.7	–	–	–
CCC(C)C1NC2(C(=O)c3ccccc3C2=O)C(C(=O)c2nc3ccccc3[nH]2)C1c1cccc(Br)c1 (stereo not drawn) [Compound 22, 3-benzimidazol-2-carbonyl-4-(3-bromophenyl)-5-sec-butylspiro[inden-2,2′-pyrrolidine]-1,3-dione]	4.78	5.67	3.45	–	–	–
CC(C)C1NC2(C(=O)c3ccccc3C2=O)C(C(=O)c2nc3ccccc3[nH]2)C1c1cccc(Br)c1 (stereo not drawn) [Compound 30, 3-(1H-benzimidazol-2-carbonyl)-4-(3-bromophenyl)-5-isopropylspiro[inden-2,2′-pyrrolidine]-1,3-dione]	2.98	3.42	2.34	–	–	–
CCOc1ccc(C2C(CC(C)C)NC3(C(=O)c4ccccc4C3=O)C2C(=O)c2nc3ccccc3[nH]2)cc1 (stereo not drawn) [Compound 15, 3-(1H-benzimidazol-2-carbonyl)-4-(4-ethoxyphenyl)-5-isobutylspiro[inden-2,2′-pyrrolidine]-1,3-dione]	85.7	28.8	> 100	–	–	–
CSCCC1NC2(C(=O)c3ccccc3C2=O)C(C(=O)c2nc3ccccc3[nH]2)C1c1ccc(Cl)c(F)c1 (stereo not drawn) [Compound 34, 3-(1H-benzimidazol-2-carbonyl)-4-(4-chloro-3-fluorophenyl)-5-(2-methylthio)ethylspiro[inden-2,2′-pyrrolidine]-1,3-dione]	39.7	44.7	36.6	–	–	–
Cc1ccc(C2C(C(C)C)NC3(C(=O)c4ccccc4C3=O)C2C(=O)c2nc3ccccc3[nH]2)cc1 (stereo not drawn) [Compound 28, 3-(1H-benzimidazol-2-carbonyl)-5-isopropyl-4-p-tolylspiro[inden-2,2′-pyrrolidine]-1,3-dione]	2.98	4.56	3.45	–	–	–
COc1ccc(C2=N[C@@H](c3ccc(Cl)cc3)[C@@H](c3ccc(Cl)cc3)N2C(=O)N2CCNC(=O)C2)c(OC(C)C)c1 [Nutlin-3a, reference compound]	–	–	–	21.4	21.7	11
CCC(C)C1NC2(C(=O)c3ccccc3C2=O)C(C(=O)c2nc3ccccc3[nH]2)C1C1CCCCC1 (stereo not drawn) [Compound 17, 3-(1H-benzimidazol-2-carbonyl)-5-sec-butyl-4-cyclohexylspiro[inden-2,2′-pyrrolidine]-1,3-dione]	14.7	11.1	16.2	–	–	–
CCOc1ccc(C2C(C(C)C)NC3(C(=O)c4ccccc4C3=O)C2C(=O)c2nc3ccccc3[nH]2)cc1 (stereo not drawn) [Compound 31, 3-(1H-benzimidazol-2-carbonyl)-4-(4-ethoxyphenyl)-5-isopropylspiro[inden-2,2′-pyrrolidine]-1,3-dione]	59.9	56.4	44.6	–	–	–
O=C(c1nc2ccccc2[nH]1)C1C(c2ccc(Cl)c(F)c2)C(c2c[nH]c3ccccc23)NC12C(=O)c1ccccc1C2=O (stereo not drawn) [Compound 42, 3-(1H-benzimidazol-2-carbonyl)-4-(4-chloro-3-fluorophenyl)-5-(1H-indol-3-yl)spiro[inden-2,2′-pyrrolidine]-1,3-dione]	3.01	4.78	3.45	–	–	–
O=C(c1nc2ccccc2[nH]1)C1C(c2ccc(Cl)cc2)C(c2c[nH]c3ccccc23)NC12C(=O)c1ccccc1C2=O (stereo not drawn) [Compound 43, 3-(1H-benzimidazol-2-carbonyl)-4-(4-chlorophenyl)-5-(1H-indol-3-yl)spiro[inden-2,2′-pyrrolidine]-1,3-dione]	39.7	55.5	34.6	–	–	–
Cc1ccc(C2C(c3c[nH]c4ccccc34)NC3(C(=O)c4ccccc4C3=O)C2C(=O)c2nc3ccccc3[nH]2)cc1 (stereo not drawn) [Compound 44, 3-(1H-benzimidazol-2-carbonyl)-5-(1H-indol-3-yl)-4-p-tolylspiro[inden-2,2′-pyrrolidine]-1,3-dione]	6.02	5.34	5.67	–	–	–
CCOc1ccc(C2C(CCSC)NC3(C(=O)c4ccccc4C3=O)C2C(=O)c2nc3ccccc3[nH]2)cc1 (stereo not drawn) [Compound 39, 3-(1H-benzimidazol-2-carbonyl)-4-(4-ethoxyphenyl)-5-(2-methylthio)ethylspiro[inden-2,2′-pyrrolidine]-1,3-dione]	> 100	> 100	> 100	–	–	–
CCC(C)C1NC2(C(=O)c3ccccc3C2=O)C(C(=O)c2nc3ccccc3[nH]2)C1c1ccc(Cl)c(F)c1 (stereo not drawn) [Compound 18, 3-(1H-benzimidazol-2-carbonyl)-5-sec-butyl-4-(3-fluoro-4-chlorophenyl)spiro[inden-2,2′-pyrrolidine]-1,3-dione]	> 100	> 100	> 100	–	–	–
CCOc1ccc(C2C(c3c[nH]c4ccccc34)NC3(C(=O)c4ccccc4C3=O)C2C(=O)c2nc3ccccc3[nH]2)cc1OCC (stereo not drawn) [Compound 45, 3-(1H-benzimidazol-2-carbonyl)-3,4-diethoxyphenyl-5-(1H-indol-3-yl)spiro[inden-2,2′-pyrrolidine]-1,3-dione]	> 100	56.4	> 100	–	–	–
CCOc1ccc(C2C(C(C)C)NC3(C(=O)c4ccccc4C3=O)C2C(=O)c2nc3ccccc3[nH]2)cc1OCC (stereo not drawn) [Compound 29, 3-(1H-benzimidazol-2-carbonyl)-3,4-diethoxyphenyl-5-isopropylspiro[inden-2,2′-pyrrolidine]-1,3-dione]	67.1	53.2	44.6	–	–	–
CSCCC1NC2(C(=O)c3ccccc3C2=O)C(C(=O)c2nc3ccccc3[nH]2)C1c1ccc(Br)cc1 (stereo not drawn) [Compound 40, 3-(1H-benzimidazol-2-carbonyl)-4-(4-bromophenyl)-5-(2-methylthio)ethylspiro[inden-2,2′-pyrrolidine]-1,3-dione]	66.2	56.7	9.56	–	–	–
CCOc1ccc(C2C(C(C)CC)NC3(C(=O)c4ccccc4C3=O)C2C(=O)c2nc3ccccc3[nH]2)cc1OCC (stereo not drawn) [Compound 21]	33.8	35.5	41.3	–	–	–
O=C(c1nc2ccccc2[nH]1)C1C(C2CCCCC2)C2CCCN2C12C(=O)c1ccccc1C2=O (stereo not drawn) [Compound 1, 2-(1H-benzimidazol-2-carbonyl)-1-cyclohexyl-1,2,5,6,7,7a-hexahydrospiroinden-2,3-pyrrolizine-1,3-dione]	40.8	> 100	> 100	–	–	–
CC(C)C1NC2(C(=O)c3ccccc3C2=O)C(C(=O)c2nc3ccccc3[nH]2)C1c1ccc(Cl)c(F)c1 (stereo not drawn) [Compound 26, 3-(1H-benzimidazol-2-carbonyl)-4-(3-fluoro-4-chlorophenyl)-5-isopropylspiro[inden-2,2′-pyrrolidine]-1,3-dione]	60	79	> 100	–	–	–
